Laboratory results: patent US7001983B1, “Antipathogenic synthetic peptides and compositions comprising them” (priority 1997, dated 2006)

What was measured:
Type in all cases: cell-based
Escherichia coli D21 = conditions: 100% inhibition of growth after 18–20 h
Bacillus megaterium Bm11 = conditions: 100% inhibition of growth after 18–20 h
[1] = test system: human red blood cells (hRBC); test: Hemolysis of human red blood cells; conditions: hRBC, 50 μM peptide, 30 min at 37° C.
Protocol: (ix) Hemolysis of human red blood cells. The peptides were tested for their hemolytic activities against human red blood cells (hRBC). Fresh hRBC with EDTA were rinsed 3 times with PBS (35 mM phosphate buffer/0.15 M NaCl, pH 7.3) by centrifugation for 10 min at 800 g and resuspended in PBS. Peptides dissolved in PBS were then added to 50 μL of a solution of the stock hRBC in PBS to reach a final volume of 100 μL (final erythrocyte concentration, 5% v/v). The resulting suspension was incubated under agitation for 30 min at 37° C. The samples were then centrifuged at 800 g for 10 min. Release of hemoglobin was monitored by measuring the absorbance of the supernatant at 540 nm. Controls for zero hemolysis (blank) and 100% hemolysis consisted of hRBC suspended in PBS and Triton 1%, respectively.

For `CC[C@H](C)[C@H](NC(=O)[C@H](CCCCN)NC(=O)[C@@H]1CCCN1C(=O)[C@@H](NC(=O)[C@H](CC(C)C)NC(=O)[C@H](C)NC(=O)[C@H](Cc1ccccc1)NC(=O)[C@H](Cc1ccccc1)NC(=O)CN)[C@@H](C)CC)C(=O)N[C@H](C(=O)N[C@@H](CO)C(=O)N[C@@H](CO)C(=O)N1CCC[C@@H]1C(=O)N[C@@H](CC(C)C)C(=O)N[C@@H](Cc1ccccc1)C(=O)N[C@@H](CCCCN)C(=O)N[C@H](C(=O)N[C@@H](CC(C)C)C(=O)N[C@@H](CC(C)C)C(=O)N[C@@H](CO)C(=O)N[C@@H](C)C(=O)N[C@H](C(=O)NCC(=O)N[C@@H](CO)C(=O)N[C@@H](C)C(=O)N[C@@H](CC(C)C)C(=O)N[C@@H](CO)C(=O)N[C@@H](CO)C(=O)N[C@@H](CO)C(=O)NCC(=O)NCC(=O)N[C@@H](CCC(N)=O)C(=O)N[C@@H](CCC(=O)NCCN)C(=O)NCCN)C(C)C)[C@@H](C)O)[C@@H](C)CC` [Peptide 9, [D]P^13-TApar], the “Minimal Inhibitory Concentration E. coli (D21)” value (Escherichia coli D21) was 3 µM, the “Minimal Inhibitory Concentration B. megaterium (Bm11)” value (Bacillus megaterium Bm11) was 1.5 µM and the “% hemolysis at 50 μM peptide” value [1] was 83%.
With `CC[C@H](C)[C@H](NC(=O)[C@H](CCCCN)NC(=O)[C@@H]1CCCN1C(=O)[C@@H](NC(=O)[C@@H](CC(C)C)NC(=O)[C@H](C)NC(=O)[C@H](Cc1ccccc1)NC(=O)[C@H](Cc1ccccc1)NC(=O)CN)[C@@H](C)CC)C(=O)N[C@H](C(=O)N[C@@H](CO)C(=O)N[C@@H](CO)C(=O)N1CCC[C@H]1C(=O)N[C@@H](CC(C)C)C(=O)N[C@@H](Cc1ccccc1)C(=O)N[C@@H](CCCCN)C(=O)N[C@H](C(=O)N[C@@H](CC(C)C)C(=O)N[C@H](CC(C)C)C(=O)N[C@@H](CO)C(=O)N[C@@H](C)C(=O)N[C@H](C(=O)NCC(=O)N[C@@H](CO)C(=O)N[C@@H](C)C(=O)N[C@@H](CC(C)C)C(=O)N[C@@H](CO)C(=O)N[C@@H](CO)C(=O)N[C@@H](CO)C(=O)NCC(=O)NCC(=O)N[C@@H](CCC(N)=O)C(=O)N[C@@H](CCC(=O)NCCN)C(=O)NCCN)C(C)C)[C@@H](C)O)[C@@H](C)CC` [Peptide 10, [D]L^5L^19-TApar] the “Minimal Inhibitory Concentration E. coli (D21)” value (Escherichia coli D21) was 3 µM, the “Minimal Inhibitory Concentration B. megaterium (Bm11)” value (Bacillus megaterium Bm11) was 1.3 µM and the “% hemolysis at 50 μM peptide” value [1] was 56%.
In the case of `CC[C@H](C)[C@H](NC(=O)[C@H](CCCCN)NC(=O)[C@H]1CCCN1C(=O)[C@@H](NC(=O)[C@H](CC(C)C)NC(=O)[C@H](C)NC(=O)[C@H](Cc1ccccc1)NC(=O)[C@H](Cc1ccccc1)NC(=O)CN)[C@@H](C)CC)C(=O)N[C@H](C(=O)N[C@@H](CO)C(=O)N[C@@H](CO)C(=O)N1CCC[C@H]1C(=O)N[C@@H](CC(C)C)C(=O)N[C@@H](Cc1ccccc1)C(=O)N[C@@H](CCCCN)C(=O)N[C@H](C(=O)N[C@@H](CC(C)C)C(=O)N[C@H](CC(C)C)C(=O)N[C@@H](CO)C(=O)N[C@@H](C)C(=O)N[C@H](C(=O)NCC(=O)N[C@@H](CO)C(=O)N[C@@H](C)C(=O)N[C@@H](CC(C)C)C(=O)N[C@@H](CO)C(=O)N[C@@H](CO)C(=O)N[C@@H](CO)C(=O)NCC(=O)NCC(=O)N[C@@H](CCC(N)=O)C(=O)N[C@@H](CCC(=O)NCCN)C(=O)NCCN)C(C)C)[C@@H](C)O)[C@@H](C)CC` [Peptide 11, [D]P^7L^19-TApar], the “Minimal Inhibitory Concentration E. coli (D21)” value (Escherichia coli D21) is reported as 3 µM, the “Minimal Inhibitory Concentration B. megaterium (Bm11)” value (Bacillus megaterium Bm11) is reported as 1.5 µM and the “% hemolysis at 50 μM peptide” value [1] is reported as 82%.
For `CC[C@H](C)[C@H](NC(=O)[C@H](CCCCN)NC(=O)[C@H]1CCCN1C(=O)[C@@H](NC(=O)[C@H](CC(C)C)NC(=O)[C@H](C)NC(=O)[C@H](Cc1ccccc1)NC(=O)[C@H](Cc1ccccc1)NC(=O)CN)[C@@H](C)CC)C(=O)N[C@H](C(=O)N[C@@H](CO)C(=O)N[C@@H](CO)C(=O)N1CCC[C@H]1C(=O)N[C@@H](CC(C)C)C(=O)N[C@@H](Cc1ccccc1)C(=O)N[C@@H](CCCCN)C(=O)N[C@H](C(=O)N[C@@H](CC(C)C)C(=O)N[C@@H](CC(C)C)C(=O)N[C@@H](CO)C(=O)N[C@@H](C)C(=O)N[C@H](C(=O)NCCN)C(C)C)[C@@H](C)O)[C@@H](C)CC` [Peptide 17, [D]P^7[1-22]-TApar], the “Minimal Inhibitory Concentration E. coli (D21)” value (Escherichia coli D21) was 10 µM, the “Minimal Inhibitory Concentration B. megaterium (Bm11)” value (Bacillus megaterium Bm11) was 1 µM and the “% hemolysis at 50 μM peptide” value [1] was 17%.
